Legend:
Format in all cases: in vivo, human
sRAGE = sRAGE study in obese patients treated twice weekly for 81 days; conditions: 0.6, 1.2 or 2.4 mg twice weekly for 81 days, FIG. 1
Method: (§1) Obese patients were treated in three cohorts with intravenous administration of a formulation of the compound A. The compound was intravenously administered to each patient of a cohort (except for a placebo cohort) twice weekly for 81 days. Each of patients in the three non-placebo cohorts received either 0.6 mg of compound A (cohort 1); 1.2 mg (cohort 2); or 2.4 mg (cohort 3) doses of the compound at the time of administration. The trial was conducted under the appropriate government and medical supervision.

adiponectin [1] = assay: Plasma adiponectin after twelve weeks (81 days) of treatment in obese patients; conditions: doses 0 (placebo), 0.6, 1.2 and 2.4 mg, FIG. 2
Method: as §1

adiponectin [2] = assay: Plasma adiponectin (total, ALPCO ELISA; high molecular weight form) after 4 weeks of intravenous treatment in obese patients

CO[C@@H]1[C@H](OC(=O)/C=C/c2ccc(OCCN(C)C)cc2)CC[C@]2(CO2)[C@H]1[C@@]1(C)O[C@@H]1CC=C(C)C.O=C(O)C(=O)O [6-O-(4-dimethylaminoethoxy)cinnamoyl fumagillol oxalate]
levels of sRAGE in patients' serum (sRAGE): increase

CO[C@@H]1[C@H](OC(=O)C=Cc2ccc(OCCN(C)C)cc2)CC[C@]2(CO2)[C@H]1[C@@]1(C)O[C@@H]1CC=C(C)C [Compound A, O-(4-dimethylaminoethoxycinnamoyl)fumagillol]
plasma adiponectin (adiponectin [1]): dose proportional increases
total plasma adiponectin (adiponectin [2]; after 4 weeks of intravenous treatment versus placebo, ALPCO ELISA, FIG. 3): increases in total plasma adiponectin
high molecular weight form of adiponectin (adiponectin [2]; after 4 weeks of intravenous treatment with 1.9 mg versus placebo, FIG. 4): increases in the high molecular weight form of adiponectin

From patent publication US10231946B2, “Methods of treating ischemic organ damage and other disorders” (Zafgen, Inc., priority 2013, dated 2019)
